The text below walks through data of patent US20220364989A1, “METHOD FOR MEASURING PHOTOTOXICITY OR PHOTOALLERGY AND REAGENT FOR USE THEREIN” (FUJIFILM Corporation, priority 2018, published 2022).

Where two headings read alike, the source gives them in different places.

Series [1] in a line: NAL depletion under and without ultraviolet irradiation, HPLC with fluorescence detection (284 nm excitation, 333 nm fluorescence).
Series [2] is described as follows: NAL depletion under and without ultraviolet irradiation, HPLC with UV detection (281 nm).
Series [3] is described as follows: NAC depletion under and without ultraviolet irradiation, HPLC with fluorescence detection (284 nm excitation, 333 nm fluorescence).
The nature of series [4]: NAC depletion under and without ultraviolet irradiation, HPLC with UV detection (281 nm).
The nature of series [5]: Average score of NAC and NAL depletion and phototoxicity or photoallergy determination, UV detection.
The nature of series [6]: Average score of NAC and NAL depletion and phototoxicity or photoallergy determination, fluorescence detection.
For series [7] the following is noted: cited from earlier work.
The conditions of series [8]: cited from earlier work. This is another data set of the same source.
The mark [9] stands for this setting: without light irradiation, single compound.
[10] abbreviates: photoallergic compound concentration 0.05 mg/mL.
The mark [11] stands for this setting: photoallergic compound concentration 0.2 mg/mL.
The mark [12] stands for this setting: photoallergic compound concentration 0.5 mg/mL.
The mark [13] stands for this setting: under light irradiation, photoallergic compound concentration 0.05 mg/mL.
Setting [14] is: under light irradiation, photoallergic compound concentration 0.2 mg/mL.
Where [15] appears, read: under light irradiation, photoallergic compound concentration 0.5 mg/mL.
[16] abbreviates: without light irradiation, photoallergic compound concentration 0.05 mg/mL.
Setting [17] is: without light irradiation, photoallergic compound concentration 0.2 mg/mL.
[18] abbreviates: without light irradiation, photoallergic compound concentration 0.5 mg/mL.
The mark [19] stands for this setting: under light irradiation, single compound.

With `CC(O)CO` (racemic) [compound 54], the figures for the “Difference in depletion (under light irradiation - without light irradiation) NAL (%)” value in series [1] (single compound) and in series [2] (single compound) were 0.7% and 0.0%, respectively. Besides, the “NAL Depletion (%)” value in series [1] (setting [9]) and in series [2] (setting [9]) was 0.0% in each case. Also, the “Difference in depletion (under light irradiation - without light irradiation) NAC (%)” value came out at 0.0% in series [3] (single compound) and 0.2% in series [4] (single compound). Further, the “NAC Depletion (%)” value in series [3] (setting [9]) and in series [4] (setting [9]) was 0.0% throughout. Moreover, the entries for the “Difference in depletion (under light irradiation - without light irradiation) Average score (%)” value in series [5] (single compound) and in series [6] (single compound) were 0.1% and 0.3%, respectively. Besides, the “Average score (%)” value in series [5] (setting [9]) and in series [6] (setting [9]) was 0.0% in each case.
Take `NS(=O)(=O)c1cc2c(cc1Cl)NCNS2(=O)=O` [2-4]: the “Difference in depletion (under light irradiation - without light irradiation) NAL (%)” value amounted to 2.6% in series [1] (setting [10]); 4.0% in series [1] (setting [11]); 5.6% in series [1] (setting [12]); 0.3% in series [2] (setting [10]); 1.4% in series [2] (setting [11]); 4.4% in series [2] (setting [12]). Further, the “NAL Depletion (%) under light irradiation” value was 2.6% in series [1] (setting [13]); 4.0% in series [1] (setting [14]); 5.6% in series [1] (setting [15]); 0.3% in series [2] (setting [10]); 1.4% in series [2] (setting [11]); 4.4% in series [2] (setting [12]). For the same compound, the “NAL Depletion (%) without light irradiation” value in series [1] (setting [16]), in series [1] (setting [17]), in series [1] (setting [18]), in series [2] (setting [16]), in series [2] (setting [17]) and in series [2] (setting [18]) was 0.0% each time. In addition, the “Difference in depletion (under light irradiation - without light irradiation) NAC (%)” value in series [3] (setting [10]) is recorded as 21.9%; in series [3] (setting [11]), 60.2%; in series [3] (setting [12]) it was 85.9%; in series [4] (setting [10]), 20.9%; in series [4] (setting [11]) it was 60.1%; in series [4] (setting [12]) it was 84.5%. Moreover, the “NAC Depletion (%) under light irradiation” value in series [3] (setting [13]) is given as 21.9%; in series [3] (setting [14]), 60.2%; in series [3] (setting [15]), 85.9%; in series [4] (setting [10]), 20.9%; in series [4] (setting [11]), 60.1%; in series [4] (setting [12]) it was 84.5%. The “NAC Depletion (%) without light irradiation” value in series [3] (setting [16]), in series [3] (setting [17]), in series [3] (setting [18]), in series [4] (setting [16]), in series [4] (setting [17]) and in series [4] (setting [18]) was 0.0% each time. Besides, the “Difference in depletion (under light irradiation - without light irradiation) Average score (%)” value in series [5] (setting [11]) is reported as 30.8%; in series [5] (setting [12]) it was 44.5%; in series [6] (setting [10]), 12.3%; in series [6] (setting [11]), 32.1%; in series [6] (setting [12]), 45.8%. In addition, the “Average score (%) under light irradiation” value in series [5] (setting [11]) is 30.8%; in series [5] (setting [12]) it was 44.5%; in series [6] (setting [13]) it was 12.3%; in series [6] (setting [14]), 32.1%; in series [6] (setting [15]), 45.8%. Moreover, the “Average score (%) without light irradiation” value in series [5] (setting [16]), in series [5] (setting [17]), in series [5] (setting [18]), in series [6] (setting [16]), in series [6] (setting [17]) and in series [6] (setting [18]) was 0.0% in each case.
For `COc1c2occc2cc2ccc(=O)oc12` [No. 3, 8-Methoxypsoralen, reference compound], the “NAL Depletion (%)” value in series [1] (setting [19]) was 45.4%. Moreover, the In vivo phototoxicity entry in series [7] (in vivo) is “Positive”. The “NAC Depletion (%)” value in series [3] (setting [19]) worked out at 98.6%. Besides, in series [8] (in vivo), the In vivo photoallergy result is given as “Positive”. Also, in series [6] (setting [19]), the “Average score (%)” value was found to be 72.0%.
On to `Cc1c([N+](=O)[O-])c(C)c([N+](=O)[O-])c(C(C)(C)C)c1[N+](=O)[O-]` [No. 18, Musk xylene, reference compound], for which the “NAL Depletion (%)” value in series [1] (setting [19]) is 6.4%. Besides, the In vivo phototoxicity entry in series [7] (literature classification) is on record as “Negative”. The “NAC Depletion (%)” value in series [3] (setting [19]) worked out at 88.9%. The In vivo photoallergy result in series [8] (literature classification) is reported as “Positive”. Besides, the “Average score (%)” value in series [6] (setting [19]) is listed as 47.6%.
For `CC1(C)S[C@@H]2[C@H](NC(=O)Cc3ccccc3)C(=O)N2[C@H]1C(=O)O` [No. 44, Penicillin G, reference compound], in series [1] (setting [19]), the “NAL Depletion (%)” value is recorded as 1.2%. The In vivo phototoxicity result in series [7] (literature classification) is on record as “Negative”. Besides, in series [3] (setting [19]), the “NAC Depletion (%)” value was 2.4%. Further, the In vivo photoallergy result in series [8] (literature classification) is “Negative”. Further, the “Average score (%)” value in series [6] (setting [19]) is 1.8%.
“Tetrachlorosalicylanilide [No. 12, reference compound]”: the “NAL Depletion (%)” value in series [1] (setting [19]) is listed as 86.5%. The In vivo phototoxicity result in series [7] (literature classification) was “Positive”. In addition, in series [3] (setting [19]), the “NAC Depletion (%)” value is listed as 97.4%. In addition, the In vivo photoallergy result in series [8] (literature classification) is “Positive”. For the same compound, the “Average score (%)” value in series [6] (setting [19]) came to 92.0%.
